The record followed here is ChEMBL document CHEMBL3392922, “MMV box screening in the Dd2 P. falciparum strain”.

Each structure is given as a SMILES string.

The test system of the experiment is Plasmodium falciparum. The experiment can be described thus: MMV: IC50 determined against P. falciparum Dd2-luc strain using a Malaria Sybr Green I Fluorescence assay. Starting conditions were 1% trophozoite synchronised parasites at 2% haematocrit. Fluorescence detection completed after 48hr incubation at 37 degrees C under 1% O2, 3% CO2 and balance N2. Format: functional, organism-based. Particulars: Dd2, 48 h.
Consider `O=C(CCc1ccccc1)c1ccccc1OCC(O)CN1CCCCC1` (centres undefined), for which the IC50 stood at 1090 nM.

The molecule `Cc1ccc(Nc2nc(-c3ccccn3)cs2)cc1` showed an IC50 of 479 nM.

For `Cc1cc(Nc2ccc3ccccc3c2)n2ncnc2n1`, inhibition was half-maximal at 156 nM (IC50).

`COc1ccc2nc(C)cc(Nc3ccc(Cl)cc3)c2c1` came in with a concentration for half-maximal inhibition (IC50) of 1180 nM. Against the preceding molecule, the IC50 is about 7.6-fold higher.

Consider `COc1ccc2nc(C)cc(Nc3cccc(O)c3)c2c1`, for which half-maximal inhibition (IC50) required 941 nM. The IC50 values of the last two molecules are within 1.5-fold of each other.

Regarding `CCOc1cc2c(cc1OCC)C(c1cc(OC)c(O)cc1Cl)NCC2` (centres undefined), the midpoint of inhibition, the IC50, lay at 120 nM.

In the case of `Brc1ccc(Nc2nc3ccccc3nc2Nc2ccc(Br)cc2)cc1`, 1510 nM corresponded to half-maximal inhibition (IC50).

In the case of `OC(CNC1CCCCC1)Cn1c2ccccc2c2ccccc21` (centres undefined), the IC50 was determined as 278 nM.

For the molecule `Cc1ccc(CSCc2ccc(C(=O)NC3CC3)o2)cc1`, the IC50 stood at 550 nM.

Take `CN1CCN(c2c3c(c(C#N)c4nc5ccccc5n24)CCC3)CC1`: the IC50 came out at 1490 nM.

`COc1cc(-c2nc(-c3ccc(Sc4ccccc4)cc3)c(-c3ccccc3)[nH]2)cc(OC)c1O` gave an IC50 of 734 nM.

For the molecule `COc1ccc2c(c1)OC(O)(C(F)(F)C(F)(F)F)CC2=O` (centres undefined), the midpoint of inhibition, the IC50, lay at 370 nM. This IC50 is about 2-fold lower than that of the molecule before.

Regarding `CC(=O)NCCc1nc2ccccc2n1Cc1ccc(C(C)C)cc1`, the IC50 was 1490 nM.

In the case of `COc1nc(Nc2ccc(C(C)C)cc2)nc(OC)n1`, inhibition was half-maximal at 365 nM (IC50).

For `COc1ccc(C(=O)C(CCC(CNC(C)(C)C)C(=O)c2ccc(OC)cc2)CNC(C)(C)C)cc1` (centres undefined), the IC50 came out at 1600 nM.

`Cc1c(C)n(Cc2ccc(F)cc2)c2ccc(C(=O)NCc3ccco3)cc12` gave an IC50 of 82.7 nM.

For `COc1ccc(C2C(C(=O)Nc3cccc(OC)c3)c3ccccc3C(=O)N2C2CCCCC2)cc1` (centres undefined), 2340 nM corresponded to half-maximal inhibition (IC50).

`CCN(CC)c1ccc(NC(=O)c2cccs2)cc1` showed an IC50 of 514 nM.

In turn, `CCOc1ccccc1NC(=O)CN1CCN(C(=O)c2ccco2)CC1` had an IC50 of 2900 nM. Compared with the last molecule, the IC50 is about 5.6-fold higher.

Molecule `Cc1ccc(Cn2c(N3CCC(C(=O)NCc4cccs4)CC3)nc3ccccc32)cc1` came in with an IC50 of 826 nM.

As to `O=c1nc(C=Cc2ccc(Cl)cc2)oc2ccccc12`, half-maximal inhibition (IC50) was put at 1190 nM.

`O=C(NCc1ccco1)C1CCN(S(=O)(=O)c2ccc(Br)cc2)CC1` yielded an IC50 of 901 nM.

With `CCOc1ccc(Nc2ccnc3cc(Cl)ccc23)cc1`, the IC50 came out at 768 nM.

Regarding `COc1ccc(OC)c(C2C3=C(CC(C)(C)CC3=O)N(c3ccc(Cl)c(Cl)c3)C3=C2C(=O)CC(C)(C)C3)c1`, the IC50 amounted to 2980 nM.

For `Cc1cccc(N2C(=O)C3C(C2=O)C2(c4ccccc4)C(=O)C3(c3ccccc3)C(c3ccc4c(c3)OCO4)=C2c2ccc3c(c2)OCO3)c1` (centres undefined), the IC50 is 1700 nM. This IC50 lies about 1.8-fold lower than the previous one.

`COc1ccc(CCNC(=O)c2cc(S(=O)(=O)N3CC(C)CC(C)C3)ccc2Sc2ccc(F)cc2)cc1OC` (centres undefined) gave an IC50 of 1330 nM.

`Cc1ccc(F)cc1NC(=O)c1cc(Cl)ccc1Nc1ccccc1` displayed an IC50 of 558 nM.

Regarding `Oc1c2c(nc3cc(-c4ccccc4)nn13)CCCC2`, the midpoint of inhibition, the IC50, lay at 1560 nM.

For `Clc1ccc2c(N3CCCC3)ccnc2c1`, the midpoint of inhibition, the IC50, lay at 1290 nM.

With `COc1cc2c3cc1Oc1c(OC)c(OC)cc4c1C(Cc1ccc(O)c(c1)Oc1ccc(cc1)CC3N(C)CC2)N(C)CC4` (centres undefined), the IC50 worked out at 692 nM.

Molecule `Cc1ccc(C)c(-c2csc(Nc3ccc(C)c(C)c3)n2)c1` registered an IC50 of 1050 nM.

As for `CCOc1ccc(CCNC(=O)c2cccs2)cc1OCC`, half-maximal inhibition (IC50) was put at 2720 nM.

Molecule `CCCCOc1ccc(C(=O)Nc2cc(C)on2)cc1` gave an IC50 of 783 nM.

`COc1ccccc1N1C(=N)SC(=Cc2ccc(OCc3ccccc3F)cc2)C1=O`: the IC50 came out at 809 nM. The IC50 values of the last two molecules are within 1.5-fold of each other.

Turning to `CCc1ccc(Nc2cc(C)nc3nc(C)nn23)cc1`, the IC50 came out at 691 nM.

Molecule `CCN(CC)S(=O)(=O)c1ccc(-c2csc(Nc3ccc(C)c(C)c3)n2)cc1` showed an IC50 of 933 nM.

In the case of `CCCn1c(=N)c(C(=O)NC2CCCCC2)cc2c(=O)n3cccc(C)c3nc21`, the IC50 was determined as 1640 nM.

`CCN1CCN(c2c(C(=O)c3ccccc3)cnc3cc(OC)c(OC)cc23)CC1` came in with an IC50 of 3340 nM.

As for `CCCCN(CCCC)S(=O)(=O)c1ccc(NC(=O)c2ccco2)cc1`, inhibition was half-maximal at 1160 nM (IC50).
